In article PMC10746543, “Design principles for cyclin K molecular glue degraders” (Nature Chemical Biology, 2023):
“And” between values parts separate entries of the source, which are not always exact repeats. Equal entries are not always repeated. Where two headings read alike, the source gives them in different places.

Tests used:
[1] = tested on: HEK293T cells; assay: Drug sensitivity assay (CellTiter-Glo viability) with or without MLN4924 pretreatment; type: cell-based, human; conditions: Supplementary Table 2; for EC50: Homo sapiens, HEK-293T, HEK293T viability, 72 h, compound alone, read-out: Cellular assays EC50; for Toxicity rescue: MLN4924-mediated cytotoxicity rescue, 10 µM used where n.d.
How it was run: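 First, cells (HEK293T–Cas9, 0.15 × 10^6 ml^−1) are exposed to DMSO or 100 nM MLN4924. Next, drugs follow at 2 h. Finally, CellTiter-Glo is read at day 3 and normalised to DMSO.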

[2] = target: CDK12–cyclin K (Homo sapiens, UniProt Q9NYV4); assay: Lanthascreen kinase binding assay, CDK12; conditions: for Lanthascreen raw signal, sheet CDK12: duplicates
Method: Lanthascreen experiments were performed using commercially available reagents (Thermo Fisher) and according to the manufacturer’s instructions.

[3] = target: T1, CDK13 (Homo sapiens, UniProt Q14004+Q16531); assay: Label-free quantitative mass spectrometry in MDA-MB-231 cells, CDK13; type: cell-based; conditions: for CDK13 peptide count: label-free quantitative MS, replicate values; for CDK13 peptide count (DMSO-normalised): normalised to DMSO = 1, replicate values
T1 construct: endogenous in cells; host or cells: MDA-MB-231
Method: MDA-MB-231 cells were treated with DMSO or a cyclin K degrader compound at 1 µM for 5 h. Cells were collected by centrifugation and washed with phosphate-buffered saline before snap freezing in liquid nitrogen. Cells were lysed by addition of lysis buffer (8 M urea, 50 mM NaCl, 50 mM 4-(2-hydroxyethyl)-1-piperazineethanesulfonic acid (EPPS) pH 8.5, and protease and phosphatase inhibitors) and homogenization by bead beating (BioSpec) for three repeats of 30 s at 2,400 rpm. Bradford assay was used to determine the final protein concentration in the clarified cell lysate. Then 50 µg of protein for each sample was reduced, alkylated and precipitated using methanol/chloroform as previously described, and the resulting washed precipitated protein was allowed to air dry. Precipitated protein was resuspended in 4 M urea, 50 mM HEPES pH 7.4, followed by dilution to 1 M urea with the addition of 200 mM EPPS, pH 8. Proteins were first digested with LysC (1:50; enzyme:protein) for 12 h at room temperature. The LysC digestion was diluted to 0.5 M urea with 200 mM EPPS pH 8 followed by digestion with trypsin (1:50; enzyme:protein) for 6 h at 37 °C. Sample digests were acidified with formic acid to a pH of 2–3 before desalting using C18 solid phase extraction plates (SOLA, Thermo Fisher Scientific). Desalted peptides were dried in a vacuum-centrifuged and reconstituted in 0.1% formic acid for liquid chromatography–mass spectrometry analysis.
Data were collected using a TimsTOF Pro2 (Bruker Daltonics) coupled to a nanoElute LC pump (Bruker Daltonics) via a CaptiveSpray nano-electrospray source. Peptides were separated on a reversed-phase C18 column (25 cm × 75 µm inner diameter, […], IonOpticks) containing an integrated captive spray emitter. Peptides were separated using a 50 min gradient of 2–30% buffer B (acetonitrile in 0.1% formic acid) with a flow rate of 250 nl min^−1 and column temperature maintained at 50 °C.
Data-dependent acquisition (DDA) was performed in Parallel Accumulation-Serial Fragmentation (PASEF) mode to determine effective ion mobility windows for downstream diaPASEF data collection. The ddaPASEF parameters included: 100% duty cycle using accumulation and ramp times of 50 ms each, one Trapped Ion Mobility Spectrometry(TIMS)-MS scan and ten PASEF ramps per acquisition cycle. The TIMS-MS survey scan was acquired between 100 m/z and 1,700 m/z and 1/K0 of 0.7–1.3 V s cm^−2. Precursors with one to five charges were selected, and those that reached an intensity threshold of 20,000 arbitrary units were actively excluded for 0.4 min. The quadrupole isolation width was set to 2 m/z for m/z < 700 and 3 m/z for m/z > 800, with the m/z between 700 m/z and 800 m/z being interpolated linearly. […] To perform diaPASEF, the precursor distribution in the DDA m/z-ion mobility plane was used to design an acquisition scheme for data-independent acquisition (DIA) data collection that included two windows in each 50 ms diaPASEF scan. Data were acquired using 16 of these 25 Da precursor double window scans (creating 32 windows) that covered the diagonal scan line for doubly and triply charged precursors, with singly charged precursors able to be excluded by their position in the m/z-ion mobility plane. These precursor isolation windows were defined between 400 m/z and 1,200 m/z and 1/K0 of 0.7–1.3 V s cm^−2.
DirectDIA mode includes first extracting the DIA data into a collection of MS2 spectra which are searched using Spectronaut’s Pulsar search engine. The search results are then used to generate a spectral library which is then employed for the targeted analysis of the DIA data. MS/MS spectra were searched against a Swissprot human database (January 2021). Database search criteria largely followed the default settings for directDIA including: tryptic with two missed cleavages, fixed carbomidomethylation of cysteine, and variable oxidation of methionine and acetylation of protein N-termini and precursor Q-value (FDR) cut-off of 0.01. […]

[4] = compound 0.038147 nM, series r13
[5] = compound 0.152588 nM, series r13
[6] = compound 0.610352 nM, series r13
[7] = compound 9.76563 nM, series r13
[8] = compound 39.0625 nM, series r13

Chain of CDK12–cyclin K (Q9NYV4 713-1052): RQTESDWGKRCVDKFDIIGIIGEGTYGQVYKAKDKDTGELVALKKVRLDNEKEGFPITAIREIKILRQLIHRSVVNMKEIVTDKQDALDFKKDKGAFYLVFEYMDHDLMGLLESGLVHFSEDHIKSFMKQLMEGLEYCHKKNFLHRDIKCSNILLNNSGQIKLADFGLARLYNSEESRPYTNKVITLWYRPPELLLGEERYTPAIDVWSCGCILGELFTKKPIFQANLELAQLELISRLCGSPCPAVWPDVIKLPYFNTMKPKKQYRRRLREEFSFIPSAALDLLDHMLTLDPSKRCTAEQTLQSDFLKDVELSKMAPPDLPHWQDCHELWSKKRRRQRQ
Chain of CDK12–cyclin K (O75909 1-267 partner limits assumed): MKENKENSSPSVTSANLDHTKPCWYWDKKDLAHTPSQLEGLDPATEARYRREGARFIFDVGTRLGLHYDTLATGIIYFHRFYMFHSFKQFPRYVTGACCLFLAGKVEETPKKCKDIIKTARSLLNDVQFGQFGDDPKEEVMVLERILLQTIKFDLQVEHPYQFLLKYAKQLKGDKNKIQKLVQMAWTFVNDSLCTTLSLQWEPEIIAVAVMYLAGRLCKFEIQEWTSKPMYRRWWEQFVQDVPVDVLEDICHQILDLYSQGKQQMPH
T1 sequence (Q14004 whole entry): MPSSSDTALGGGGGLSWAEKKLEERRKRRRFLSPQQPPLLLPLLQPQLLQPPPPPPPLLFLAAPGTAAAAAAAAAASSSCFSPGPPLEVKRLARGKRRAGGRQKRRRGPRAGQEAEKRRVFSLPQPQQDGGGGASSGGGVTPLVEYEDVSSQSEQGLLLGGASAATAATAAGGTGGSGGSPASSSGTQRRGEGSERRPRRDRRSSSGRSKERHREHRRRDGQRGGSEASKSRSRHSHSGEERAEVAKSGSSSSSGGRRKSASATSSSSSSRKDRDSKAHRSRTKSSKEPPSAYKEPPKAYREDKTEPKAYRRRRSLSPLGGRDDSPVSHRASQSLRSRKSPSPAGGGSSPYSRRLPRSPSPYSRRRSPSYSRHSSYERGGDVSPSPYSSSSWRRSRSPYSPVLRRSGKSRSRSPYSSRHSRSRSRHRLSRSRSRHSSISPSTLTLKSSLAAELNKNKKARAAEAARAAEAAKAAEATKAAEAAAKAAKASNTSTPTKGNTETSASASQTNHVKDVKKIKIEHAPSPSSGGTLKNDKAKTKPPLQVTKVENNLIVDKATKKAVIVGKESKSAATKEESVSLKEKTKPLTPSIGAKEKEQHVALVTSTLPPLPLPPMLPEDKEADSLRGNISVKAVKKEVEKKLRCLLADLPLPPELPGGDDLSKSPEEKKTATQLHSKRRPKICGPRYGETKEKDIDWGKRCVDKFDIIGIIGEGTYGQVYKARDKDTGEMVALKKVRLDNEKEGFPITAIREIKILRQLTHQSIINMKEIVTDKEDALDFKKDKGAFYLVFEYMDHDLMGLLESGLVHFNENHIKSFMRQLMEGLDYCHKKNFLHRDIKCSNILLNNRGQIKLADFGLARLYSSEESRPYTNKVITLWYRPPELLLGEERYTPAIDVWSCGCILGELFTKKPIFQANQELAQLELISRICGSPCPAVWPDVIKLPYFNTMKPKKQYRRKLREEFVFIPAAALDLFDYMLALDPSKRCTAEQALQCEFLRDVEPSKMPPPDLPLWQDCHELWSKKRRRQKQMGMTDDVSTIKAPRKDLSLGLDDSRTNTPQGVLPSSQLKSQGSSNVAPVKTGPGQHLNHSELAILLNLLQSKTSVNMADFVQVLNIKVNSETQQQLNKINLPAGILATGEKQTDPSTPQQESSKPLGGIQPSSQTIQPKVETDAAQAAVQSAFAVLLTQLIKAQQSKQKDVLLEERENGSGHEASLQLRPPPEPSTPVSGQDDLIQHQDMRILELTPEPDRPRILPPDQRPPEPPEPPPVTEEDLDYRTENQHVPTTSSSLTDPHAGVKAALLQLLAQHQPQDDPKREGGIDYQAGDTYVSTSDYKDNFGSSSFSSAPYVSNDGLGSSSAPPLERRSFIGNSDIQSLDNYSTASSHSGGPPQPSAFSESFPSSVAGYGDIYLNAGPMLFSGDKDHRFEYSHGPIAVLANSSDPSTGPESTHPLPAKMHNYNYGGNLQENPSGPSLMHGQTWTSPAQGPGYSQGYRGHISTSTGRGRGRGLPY
T1 sequence (O75909 whole entry partner): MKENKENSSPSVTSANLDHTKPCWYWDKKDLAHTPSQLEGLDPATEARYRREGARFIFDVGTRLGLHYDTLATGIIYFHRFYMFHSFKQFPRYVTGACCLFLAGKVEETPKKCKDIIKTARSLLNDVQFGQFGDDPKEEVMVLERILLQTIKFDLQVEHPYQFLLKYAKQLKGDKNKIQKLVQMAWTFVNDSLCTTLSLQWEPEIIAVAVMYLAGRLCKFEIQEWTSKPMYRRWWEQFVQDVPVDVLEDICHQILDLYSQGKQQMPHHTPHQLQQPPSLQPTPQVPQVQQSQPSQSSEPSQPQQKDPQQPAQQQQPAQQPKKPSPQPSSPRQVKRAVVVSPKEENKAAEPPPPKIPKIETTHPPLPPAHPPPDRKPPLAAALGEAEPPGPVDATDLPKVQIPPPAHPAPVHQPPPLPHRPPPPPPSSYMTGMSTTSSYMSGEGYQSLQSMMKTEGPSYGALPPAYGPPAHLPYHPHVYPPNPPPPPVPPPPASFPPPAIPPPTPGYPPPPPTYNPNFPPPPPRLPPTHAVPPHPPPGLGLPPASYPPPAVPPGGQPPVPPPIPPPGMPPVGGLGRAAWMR
T1 sequence (Q16531 2-1140 limits assumed): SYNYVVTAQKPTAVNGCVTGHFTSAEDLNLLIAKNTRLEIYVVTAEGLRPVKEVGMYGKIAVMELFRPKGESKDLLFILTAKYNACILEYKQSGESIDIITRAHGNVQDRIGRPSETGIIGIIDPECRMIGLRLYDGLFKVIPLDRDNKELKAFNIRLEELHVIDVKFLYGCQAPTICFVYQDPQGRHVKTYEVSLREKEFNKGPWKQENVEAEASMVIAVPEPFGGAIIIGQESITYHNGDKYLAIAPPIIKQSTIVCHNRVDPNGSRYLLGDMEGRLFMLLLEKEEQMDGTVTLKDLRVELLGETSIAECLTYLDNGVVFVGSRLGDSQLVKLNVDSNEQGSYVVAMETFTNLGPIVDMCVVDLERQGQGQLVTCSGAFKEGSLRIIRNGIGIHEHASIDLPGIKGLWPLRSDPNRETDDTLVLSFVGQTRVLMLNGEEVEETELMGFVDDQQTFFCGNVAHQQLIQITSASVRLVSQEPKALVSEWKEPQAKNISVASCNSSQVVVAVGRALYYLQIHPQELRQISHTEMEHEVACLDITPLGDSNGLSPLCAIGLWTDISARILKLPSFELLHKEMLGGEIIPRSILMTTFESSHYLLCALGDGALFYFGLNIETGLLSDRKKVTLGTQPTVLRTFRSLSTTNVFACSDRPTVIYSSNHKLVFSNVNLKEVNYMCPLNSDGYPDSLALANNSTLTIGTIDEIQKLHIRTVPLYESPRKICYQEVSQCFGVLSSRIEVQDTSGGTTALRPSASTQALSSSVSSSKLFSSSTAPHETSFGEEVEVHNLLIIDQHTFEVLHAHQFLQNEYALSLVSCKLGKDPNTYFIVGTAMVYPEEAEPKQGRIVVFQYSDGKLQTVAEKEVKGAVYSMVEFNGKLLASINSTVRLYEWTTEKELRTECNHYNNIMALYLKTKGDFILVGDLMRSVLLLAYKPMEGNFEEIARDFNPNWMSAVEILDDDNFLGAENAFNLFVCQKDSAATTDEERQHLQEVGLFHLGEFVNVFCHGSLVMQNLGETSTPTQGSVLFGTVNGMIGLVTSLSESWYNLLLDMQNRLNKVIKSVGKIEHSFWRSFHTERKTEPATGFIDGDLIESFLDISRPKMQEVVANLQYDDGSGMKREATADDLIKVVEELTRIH

| Lanthascreen raw signal, sheet CDK12 [2, 4] | Lanthascreen raw signal, sheet CDK12 [2, 5] | Lanthascreen raw signal, sheet CDK12 [2, 6] | Lanthascreen raw signal, sheet CDK12 ([2]; compound 1.02544 nM, series r1) | Lanthascreen raw signal, sheet CDK12 ([2]; compound 3.15521 nM, series r1) | Lanthascreen raw signal, sheet CDK12 ([2]; compound 9.46563 nM, series r1) | Lanthascreen raw signal, sheet CDK12 [2, 7] | Lanthascreen raw signal, sheet CDK12 ([2]; compound 31.5521 nM, series r1) | Lanthascreen raw signal, sheet CDK12 [2, 8] | Lanthascreen raw signal, sheet CDK12 ([2]; compound 99.3891 nM, series r1) | Lanthascreen raw signal, sheet CDK12 ([2]; compound 156.25 nM, series r13) | Lanthascreen raw signal, sheet CDK12 ([2]; compound 315.521 nM, series r1) | Lanthascreen raw signal, sheet CDK12 ([2]; compound 625 nM, series r13) | Lanthascreen raw signal, sheet CDK12 ([2]; compound 2500 nM, series r13) | Lanthascreen raw signal, sheet CDK12 ([2]; compound 3155.21 nM, series r1) | Lanthascreen raw signal, sheet CDK12 ([2]; compound 10000 nM, series r13) | Lanthascreen raw signal, sheet CDK12 ([2]; compound 10002 nM, series r1) | CDK13 peptide count [3] | Compound | EC50 [1] [µM] | Toxicity rescue [1] [%] | other results |
| --- | --- | --- | --- | --- | --- | --- | --- | --- | --- | --- | --- | --- | --- | --- | --- | --- | --- | --- | --- | --- | --- |
| 0.01223 and 0.01089 | 0.01192 and 0.01181 | 0.01147 and 0.01206 | 0.009388 and 0.008109 | 0.008061 and 0.009006 | 0.008944 and 0.009513 | 0.01062 and 0.01153 | 0.009567 and 0.009846 | 0.01003 and 0.0116 | 0.009103 and 0.01044 | 0.0115 and 0.0116 | 0.007883 and 0.008557 | 0.01055 and 0.01154 | 0.01098 and 0.01126 | 0.006491 and 0.00695 | 0.01006 and 0.01041 | 0.00959 and 0.009612 | 467.381 and 369.821 | Cc1cccc(Nc2nc(CC(=O)Nc3ncc(C)s3)cs2)n1 [HQ461] | 1.3 | 159 | IC50 ([2]; Lanthascreen, read-out: CDK12 inhibition): > 10000 nM; IC50 ([2]; Supplementary Table 2, read-out: Lanthascreen IC50 [nM] CDK12): > 10000 nM; CDK13 peptide count (DMSO-normalised) [3]: 0.6953 and 0.5683 |
| 0.01046 and 0.009983 | 0.009614 and 0.01041 | 0.01066 and 0.01021 | 0.008952 and 0.009485 | 0.008128 and 0.008332 | 0.008981 and 0.006574 | 0.009284 and 0.009045 | 0.007535 and 0.008876 | 0.008439 and 0.008567 | 0.006758 and 0.007046 | 0.008038 and 0.008664 | 0.006236 and 0.005797 | 0.008328 and 0.007759 | 0.007658 and 0.007398 | 0.006081 and 0.005159 | 0.007533 and 0.00783 | 0.004606 and 0.00667 | 281.229 and 215.265 | Cn1cc(-n2cnc3c(NCc4nc5cc(Cl)c(Cl)cc5[nH]4)nc(N4CCOCC4)nc32)cn1 [SR-4835] | 0.042 | 645 | Lanthascreen raw signal, sheet CDK12 ([2]; compound 0.038147 nM, series r37): 0.01351 and 0.01182; Lanthascreen raw signal, sheet CDK12 ([2]; compound 0.038147 nM, series r49): 0.007647 and 0.00729; Lanthascreen raw signal, sheet CDK12 ([2]; compound 0.152588 nM, series r37): 0.01248 and 0.01201; Lanthascreen raw signal, sheet CDK12 ([2]; compound 0.152588 nM, series r49): 0.009969 and 0.01054; Lanthascreen raw signal, sheet CDK12 ([2]; compound 0.610352 nM, series r37): 0.01219 and 0.01189; Lanthascreen raw signal, sheet CDK12 ([2]; compound 0.610352 nM, series r49): 0.01058 and 0.01056; Lanthascreen raw signal, sheet CDK12 ([2]; compound 9.76563 nM, series r37): 0.009426 and 0.01016; Lanthascreen raw signal, sheet CDK12 ([2]; compound 9.76563 nM, series r49): 0.009267 and 0.008766; Lanthascreen raw signal, sheet CDK12 ([2]; compound 39.0625 nM, series r37): 0.009028 and 0.008999; Lanthascreen raw signal, sheet CDK12 ([2]; compound 39.0625 nM, series r49): 0.00795 and 0.007253; Lanthascreen raw signal, sheet CDK12 ([2]; compound 156.25 nM, series r37): 0.006404 and 0.007018; Lanthascreen raw signal, sheet CDK12 ([2]; compound 156.25 nM, series r49): 0.006482 and 0.006079; Lanthascreen raw signal, sheet CDK12 ([2]; compound 625 nM, series r37): 0.006628 and 0.006561; Lanthascreen raw signal, sheet CDK12 ([2]; compound 625 nM, series r49): 0.005855 and 0.00595; Lanthascreen raw signal, sheet CDK12 ([2]; compound 2500 nM, series r37): 0.006178 and 0.006049; Lanthascreen raw signal, sheet CDK12 ([2]; compound 2500 nM, series r49): 0.005776 and 0.005723; Lanthascreen raw signal, sheet CDK12 ([2]; compound 10000 nM, series r37): 0.005313 and 0.005643; Lanthascreen raw signal, sheet CDK12 ([2]; compound 10000 nM, series r49): 0.005957 and 0.005417; CDK13 peptide count (DMSO-normalised) [3]: 0.4184 and 0.3308 |
